According to patent US8932610B2, “Aqueous clear solutions of fluocinolone acetonide for treatment of otic inflammation” (Laboratorios Salvat, S.A., priority 2010, dated 2015):
Where a name gives a salt, the structure may show the parent alone.

Experiments:
[1] = Concentration of active ingredient before and after filtration through 0.22 μm filter; assay type: physicochemical
[2] = cited from earlier work
[3] = Batch 1, after filtration (0.22 μm filter)
[4] = Batch 1, before filtration (0.22 μm filter)
[5] = Batch 2, after filtration (0.22 μm filter)
[6] = Batch 2, before filtration (0.22 μm filter)

| SMILES | % of theoretical [1, 3] | Concentration [1, 3] | % of theoretical [1, 4] | Concentration [1, 4] | % of theoretical [1, 5] | Concentration [1, 5] | % of theoretical [1, 6] | Concentration [1, 6] | Solubility in water [2] |
| --- | --- | --- | --- | --- | --- | --- | --- | --- | --- |
| CC1(C)O[C@@H]2C[C@H]3[C@@H]4C[C@H](F)C5=CC(=O)C=C[C@]5(C)[C@@]4(F)[C@@H](O)C[C@]3(C)[C@]2(C(=O)CO)O1 [Fluocinolone Acetonide] | 100.0% | 0.025% | 100.0% | 0.025% | 100.0% | 0.025% | 100.0% | 0.025% | virtually insoluble in water |
| O=C(O)c1cn(C2CC2)c2cc(N3CCNCC3)c(F)cc2c1=O [Ciprofloxacin HCl] | 97.7% | 0.341% | 98.0% | 0.342% | 98.0% | 0.342% | 98.0% | 0.342% | – |
